{"source": "patent US9884863B2", "about": "“STAT3 inhibitor” (Board of Regents, The University of Texas System, priority 2013, dated 2018)", "key": {"[1]": {"test_system": "MDA-MB-231", "assay": "MTS cell proliferation assay, MDA-MB-231", "format": "cell-based, human", "settings": "Homo sapiens, MDA-MB-231, 72 h, read-out: IC50 MDA-MB-231 (Table 4)", "method_in_brief": "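Cells are exposed to DMSO or STAT3 inhibitors at 0.01-100 μM for 72 h, or at 1, 5 and 10 μM. Proliferation is read by MTS absorbance at 550 or 560 nm after 1 h at 37 °C. Each concentration is run in quadruplicate wells.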"}, "[2]": {"test_system": "AsPC1", "assay": "MTS cell proliferation assay, AsPC1", "format": "cell-based, human", "settings": "Homo sapiens, ASPC1, 72 h, read-out: IC50 AsPC1 (Table 4)", "method_in_brief": "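Cells seeded at 2×10^3 cells/well and exposed 72 h to DMSO or 0.01–100 μM STAT3 inhibitor, quadruplicate wells per concentration. Proliferation read by MTS reduction, OD 550 nm after 1 h at 37 °C.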"}, "[3]": {"test_system": "STAT3 and pSTAT3 in MDA-MB-231 xenograft tumors", "assay": "IHC and Western blot of xenograft tumors", "format": "in vivo, mice", "settings": "oral gavage 14 days", "description": "Immunohistochemistry (IHC): Paraffin blocks of the collected tissue were sectioned into 4 μm thickness and stained with H&E as a reference. All slides were subjected to phospho-STAT3 (Y705) IHC with ABC staining method. Rabbit or mouse IgG ABC kit was purchased from Vector Laboratories (Burlingame, Calif., USA) and ABC staining reagents were purchased from Sigma Aldrich (Louis, Mo., USA). PBS was used instead of primary antibody as a negative control."}, "[4]": {"test_system": "MDA-MB-231 and MDA-MB-468 cells", "assay": "Colony formation assay", "format": "cell-based, human", "settings": "15 days, starting at 0.625 μM", "description": "Colony Formation Assay: MDA-MB-468 and MDA-MB-231 cells were seeded in 6-well plates with a density of 800-3000 cells/well, respectively. […] The culture media with the compounds were changed every 72 h. After two weeks, the wells were washed twice with PBS buffer and 2 mL of 0.01% crystal violet staining buffer was added and incubated for 10 min. The wells were then washed with PBS for 5 min for three times, and allowed to dry. Photographs were then taken and the density of the entire culture well area was digitally measured using the GelCount™ instrument (Oxford Optronix, UK). Experiments were performed in triplicate and the density data were analyzed with one-way ANOVA using GraphPad Prizm 6 software. Error bars represent standard deviation."}, "[5]": {"test_system": "MDA-MB-231 xenograft tumors", "assay": "MDA-MB-231 xenograft tumor growth in nude mice", "format": "in vivo", "settings": "oral gavage daily for 14 days"}}}
{"compound": "O=C(Nc1ccc([N+](=O)[O-])cc1Cl)c1cc(Cl)ccc1O", "note": "[niclosamide, reference compound]", "values": [{"measurement": "IC50", "setting": "[1]", "value": 790, "unit": "nM"}, {"measurement": "IC50", "setting": "[2]", "value": 1470, "unit": "nM"}, {"measurement": "STAT3 and pSTAT3 (Y705 and S727) in tumor lysates, Western blot", "setting": "[3]", "value": "decreased"}, {"measurement": "colony formation", "setting": "[4]", "value": "significant suppression of colony formation"}, {"measurement": "reduction in tumor growth, 75 mg/kg", "setting": "[5]", "value": 55, "unit": "%"}]}
